According to patent US9750742B2, “Small molecular inhibitors of RAD51 recombinase and methods thereof” (Drexel University, priority 2011, dated 2017):
Entries after “also recorded” stand apart in the source; their conditions may differ.

Columns and labels:
RAD54 = target: T1, RAD54 (Homo sapiens, UniProt Q92698); assay: DNA branch migration assay for RAD54; format: biochemical; details: 0 to 200 μM
T1 construct: made in house
T1 sequence (Q92698 1-747): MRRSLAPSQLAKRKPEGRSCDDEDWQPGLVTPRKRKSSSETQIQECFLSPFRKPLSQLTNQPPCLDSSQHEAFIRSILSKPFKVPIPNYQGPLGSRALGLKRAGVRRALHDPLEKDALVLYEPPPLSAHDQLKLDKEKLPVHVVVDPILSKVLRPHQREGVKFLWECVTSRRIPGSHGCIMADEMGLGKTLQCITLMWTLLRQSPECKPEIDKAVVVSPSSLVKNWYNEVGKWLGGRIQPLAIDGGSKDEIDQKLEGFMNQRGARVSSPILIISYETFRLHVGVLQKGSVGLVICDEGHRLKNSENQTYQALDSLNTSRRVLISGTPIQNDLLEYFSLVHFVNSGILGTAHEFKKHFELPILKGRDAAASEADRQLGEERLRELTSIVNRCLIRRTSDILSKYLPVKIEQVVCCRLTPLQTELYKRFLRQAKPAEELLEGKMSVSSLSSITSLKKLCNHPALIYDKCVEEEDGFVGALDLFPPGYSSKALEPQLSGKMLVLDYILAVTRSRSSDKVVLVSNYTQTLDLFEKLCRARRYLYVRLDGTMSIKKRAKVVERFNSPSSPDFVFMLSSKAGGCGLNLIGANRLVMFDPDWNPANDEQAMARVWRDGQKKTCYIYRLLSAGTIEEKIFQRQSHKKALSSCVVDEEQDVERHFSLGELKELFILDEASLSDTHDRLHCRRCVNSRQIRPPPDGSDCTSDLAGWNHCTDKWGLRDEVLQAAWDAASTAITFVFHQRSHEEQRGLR
Description: The partial Holliday junction (PX-junction), in which one of the four DNA arms is single-stranded (FIG. 6A), was used as a substrate for the 4-stranded branch migration promoted by RAD54 (Mazina et al., 2007, J. Biol. Chem. 282:21068-80). […] To produce PX-junctions, tailed DNA (Oligo 170, SEQ ID NO:9; Oligo 171, SEQ ID NO:10) (1.45 μM, molecules) was annealed with ^32P-labeled fork DNA (Oligo 71, SEQ ID NO:7; Oligo 169, SEQ ID NO:8) (1.33 μM, molecules) in branch migration buffer containing 25 mM Tris acetate, pH 7.5, 3 mM magnesium acetate, 2 mM ATP, 1 mM dithiothreitol, 100 μg ml^−1 bovine serum albumin, 10 U ml^−1 creatine phosphokinase, 15 mM creatine phosphate for 10 min at 37° C. and then for 10 min at 30° C. Then, branch migration was initiated immediately by addition of the RAD54 (100 nM) to PX-junctions (33 nM, molecules) in branch migration buffer and was carried out at 30° C. […] The DNA products were deproteinized by treatment with stop buffer (1.4% (w/v) SDS, 960 μg ml^−1 proteinase K, 7.5% (w/v) glycerol, 0.015% (w/v) bromphenol blue) for 5 min at 22° C. and analyzed by electrophoresis in 8% (w/v) polyacrylamide gels (29:1) in 1×TBE buffer (89 mM Tris borate, pH 8.3, and 1 mM EDTA) at 22° C. The gels were dried on DE81 chromatography paper (Whatman, Kent, UK) and quantified using a Storm 840 PhosphorImager (Molecular Dynamics, Piscataway, N.J.).

RAD51 [1] = target: T2, RAD51 (Homo sapiens, UniProt Q06609); assay: B02 binding to RAD51 by SPR; details: absence of ATP
T2 construct: made in house
T2 sequence (Q06609 1-339): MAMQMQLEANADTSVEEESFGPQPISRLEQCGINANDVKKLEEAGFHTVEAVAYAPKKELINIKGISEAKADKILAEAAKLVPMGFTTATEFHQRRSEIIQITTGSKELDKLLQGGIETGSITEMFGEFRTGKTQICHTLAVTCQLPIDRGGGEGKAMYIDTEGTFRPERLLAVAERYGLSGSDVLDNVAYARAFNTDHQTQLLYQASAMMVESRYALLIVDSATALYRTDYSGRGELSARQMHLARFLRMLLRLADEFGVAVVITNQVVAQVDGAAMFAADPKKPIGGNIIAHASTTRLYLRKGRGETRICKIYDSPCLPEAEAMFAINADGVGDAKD
Description: Data were analyzed using the ProteOn Manager Software version 3.0 (Bio-Rad).

Tp53−/− MEF cells = assay: Clonogenic survival assay, Tp53−/− MEF; format: cell-based, mouse
Description: (§1) Briefly, MEF cells were trypsinized and the appropriate number of cells was replated on 10 cm tissue culture dishes. […] Cells were fixed and stained using staining solution (0.05% crystal violet, 50% methanol in PBS); colonies were counted using an AlphaImager 3400 (Alpha Innotech Inc.). The percent of survival was determined as described (Hall & Giccia, 2005, “Radiobiology for the Radiologist”, 6th Ed., Philadelphia, Pa.: Lippincott Williams & Wilkins, pp. 30-45). The percent of survival obtained from untreated cells was normalized to 100% survival.

RAD51 [2] = target: T2, RAD51; assay: DNA binding assay (RAD51-ssDNA complexes); format: biochemical; details: B02 25 μM, without NaCl challenge
Description: DNA binding assay was performed as described (Bugreev et al., 2005, J. Biol. Chem. 280:26886-95). […] After 10 min, reactions was mixed with 0.2 vol of loading buffer and loaded on 10% polyacrylamide gels (135 V, 20 mA) in 0.5×TBE buffer containing 45 mM Tris borate (pH 8.3) and 0.25 mM EDTA. Gels were quantified using a Storm 840 PhosphorImager.

MEF cells = assay: Clonogenic survival assay, MEF; format: cell-based, mouse
Description: as §1

O=c1c2ccccc2nc(/C=C/c2cccnc2)n1Cc1ccccc1 [Compound B02, (E)-3-benzyl-2-(2-(pyridin-3-yl)vinyl)quinazolin-4(3H)-one]
inhibition of RAD54 branch migration, in words (RAD54): not to significantly inhibit | kd (RAD51 [1]): 2.5 (±0.3)×10^−2 s^−1 | sensitivity to cisDDP (cisplatin) and MMC (Tp53−/− MEF cells; B02 5 μM): more sensitive; also recorded: increased | cellular viability, B02 alone (Tp53−/− MEF cells; up to 5 μM, Tp53−/− MEF): No decrease of cellular viability; also recorded: did not have a substantial effect | loss of filaments (RAD51 [2]): 20% | sensitivity to cisDDP (cisplatin) and MMC (MEF cells; B02 5 μM): more sensitive | sensitivity to MMS (MEF cells; B02 5 μM co-treatment with MMS): enhancement of sensitivity | sensitivity to MMS (MEF cells; B02 5 μM plus AZD2281 1 μM versus AZD2281 only): more sensitive | increase in sensitivity to MMC (MEF cells; B02 5 μM, MMC 1 μM): fivefold | increase in sensitivity to cisplatin (MEF cells; B02 5 μM, cisplatin 32 μM): approximately 17 fold | cellular viability, B02 alone (MEF cells; up to 5 μM, wild type MEF): No decrease of cellular viability; also recorded: did not have a substantial effect
